Test results from patent US10894817B2, “Fatty acid modified urocortin-2 analogs for the treatment of diabetes and chronic kidney disease” (priority 2016, dated 2021).
Where “and” joins values, the source holds several entries; their conditions need not be identical. Equal values may be shown once. Starred links: 1 amine or outer side, 2 acyl side, 3 side chain; linkers in the order of their positions; H or OH if unused. Non-standard residues stand in square brackets, D forms with d. Residues, ends and D or L forms follow the SMILES beside them. Groups on a side chain read outwards from the residue. *: point of attachment. C20 diacid = O=C(O)CCCCCCCCCCCCCCCCCCC(=O)*; C18 diacid = O=C(O)CCCCCCCCCCCCCCCCC(=O)*; γGlu = O=C(O)[C@H](CCC(=O)[*:2])N[*:1]; NMeI = CC[C@H](C)[C@H](NC)C(=O)O; AEEA = NCCOCCOCC(=O)O

What was measured:
[1] = Pharmacokinetics, single subcutaneous dose, rats; details: for half-life: T1/2, male Sprague Dawley rats
human CRHR1 = molecular target: T1, human CRHR1 (Homo sapiens, UniProt P34998); assay: human CRHR1 cell-based cAMP assay (Y79 cells); details: Y79 cells with endogenous human CRHR1, mean ± SEM of runs, read-out: hCRHR1 Average EC50
T1 construct: which expresses endogenous human CRHR1; host or cells: Y79 human retinoblastoma cells
T1 sequence (P34998 24-415): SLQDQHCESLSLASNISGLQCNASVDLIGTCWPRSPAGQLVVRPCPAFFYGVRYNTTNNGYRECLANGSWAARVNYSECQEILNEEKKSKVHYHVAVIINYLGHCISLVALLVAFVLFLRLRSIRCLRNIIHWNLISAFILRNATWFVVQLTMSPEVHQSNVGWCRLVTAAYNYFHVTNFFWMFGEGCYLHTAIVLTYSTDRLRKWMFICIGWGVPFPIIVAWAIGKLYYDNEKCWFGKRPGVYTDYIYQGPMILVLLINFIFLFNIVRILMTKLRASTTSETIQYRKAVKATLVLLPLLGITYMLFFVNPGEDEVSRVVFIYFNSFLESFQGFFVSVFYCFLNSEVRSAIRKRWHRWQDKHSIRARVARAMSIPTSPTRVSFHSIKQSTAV
Method: CRHR agonistic activity is measured in a cell-based cAMP assay. Serial dilutions of the test peptides are made in assay buffer containing Hank's Balanced Salt Solution (HBSS, without phenol red) supplemented with 20 mM HEPES and 0.05% lactalbumin enzymatic hydrolysate (LAH) (“assay buffer”). The highest concentration that is used starts from 1 μM in the human CRHR2b, whereas 100 μM starting concentration is used in the human CRHR1 assay. A one to three dilution of the test peptides is used in both assays.
The human Retinoblastoma cell line Y79 (ATCC #HTB-18), which expresses endogenous human CRHR1, is used in the human CRHR1 assay. The cells are grown in RPMI 1640 (Hyclone, #SH30255) containing 20% fetal bovine serum and 10 mM HEPES, in suspension culture. Cells are centrifuged to remove the culture media and washed once in HBSS supplemented with 20 mM HEPES. The cells are resuspended in the assay buffer and 20,000 cells are used per treatment in the human CRHR1 assay.
The cells are dispensed into Costar 96-well black polystyrene half area EIA/RIA plates (Corning Incorporated, Corning, N.Y.) followed by the addition of the diluted peptides, each at a volume of 20 μL. The agonist induced cAMP levels are detected using a HTRF cAMP Dynamic 2 kit (CisBio, Bedford, Mass.). After incubation at 37° C. for 30 min, the assay is stopped by cell lysis via the addition of 20 μL of d2-labeled cAMP and followed by 20 μL of cryptate-labeled anti-cAMP antibody, as described by the manufacturer. Cellular cAMP (as a result of agonist stimulation) competes with the d2-labeled cAMP for binding to the antibody. HTRF detection is performed on an Envision plate reader (Perkin Elmer Life and Analytical Sciences, Waltham, Mass.) by measuring ratiometric emission at 620 and 665 nm after excitation at 320 nm.
The data are converted to picomoles of cAMP using a standard curve obtained from the same assay performed with varying concentrations of unlabeled cAMP. Percent of the maximum activation of the cells is calculated using converted picomole cAMP data by comparing to the amount of cAMP produced by 1 μM human UCN2 for the human CRHR2b or 1 μM human UCN1 for the human CRHR1 assay. The data are analyzed using a Curve Fitting Tool to calculate ED50. Numeric values shown below in Table 1 represent the mean of multiple runs (number of runs shown in parentheses) following the mean value±SEM.

[2] = male, Sprague Dawley, rat, plasma, sc, 150 nmol/kg
[3] = male Sprague Dawley rats, single 50 nmol/kg s.c., individual animal
[4] = male Sprague Dawley rats, single 150 nmol/kg s.c., individual animal
[5] = male, Sprague Dawley, rat, plasma, sc, 50 nmol/kg
[6] = male, Sprague Dawley, rat, plasma, sc, 50 nmol/kg, male Sprague Dawley rats, single 50 nmol/kg s.c., Mean
[7] = male, Sprague Dawley, rat, plasma, sc, 50 nmol/kg, male Sprague Dawley rats, single 50 nmol/kg s.c., individual animal
[8] = male, Sprague Dawley, rat, plasma, sc, 150 nmol/kg, male Sprague Dawley rats, single 150 nmol/kg s.c., Mean
[9] = male, Sprague Dawley, rat, plasma, sc, 150 nmol/kg, male Sprague Dawley rats, single 150 nmol/kg s.c., individual animal

Compound | AUC(0-inf) [1, 2] [µM·h] | Cmax [1, 2] [nM] | EC50 (human CRHR1) [µM] | Cmax [1, 3] | Cmax [1, 4] | AUC(0-inf) [1, 5] [µM·h] | Cmax [1, 5] [nM] | Tmax [1, 6] [h] | Tmax [1, 7] [h] | Tmax [1, 8] [h] | Tmax [1, 9] [h] | further results
CC[C@H](C)[C@H](NC(C)=O)C(=O)N[C@H](C(=O)N[C@@H](CC(C)C)C(=O)N[C@@H](CO)C(=O)N[C@@H](CC(C)C)C(=O)N[C@@H](CC(=O)O)C(=O)N[C@H](C(=O)N1CCC[C@H]1C(=O)N[C@H](C(=O)NCC(=O)N[C@@H](CC(C)C)C(=O)N[C@@H](CC(C)C)C(=O)N[C@@H](CCC(N)=O)C(=O)N[C@H](C(=O)N[C@@H](CC(C)C)C(=O)N[C@@H](CC(C)C)C(=O)N[C@@H](CCC(=O)O)C(=O)N[C@@H](CCC(N)=O)C(=O)N[C@@H](CCC(=O)O)C(=O)N[C@@H](CCCCN)C(=O)N[C@@H](CCC(N)=O)C(=O)N[C@@H](CCC(=O)O)C(=O)N[C@@H](CCCCN)C(=O)N[C@@H](CCC(=O)O)C(=O)N[C@@H](CCCCN)C(=O)N[C@@H](CCC(N)=O)C(=O)N[C@@H](CCC(N)=O)C(=O)N[C@@H](C)C(=O)N[C@@H](CCCCNC(=O)COCCOCCNC(=O)COCCOCCNC(=O)CC[C@H](NC(=O)CC[C@H](NC(=O)CCCCCCCCCCCCCCCCCCC(=O)O)C(=O)O)C(=O)O)C(=O)N[C@H](C(=O)N[C@@H](CC(N)=O)C(=O)N[C@@H](C)C(=O)N[C@@H](CCC(N)=O)C(=O)N[C@H](C(=O)N[C@@H](CC(C)C)C(=O)N[C@@H](C)C(=O)N[C@@H](CCC(N)=O)C(=O)N[C@H](C(N)=O)C(C)C)[C@@H](C)CC)[C@@H](C)O)[C@@H](C)CC)[C@@H](C)CC)C(C)C)C(C)C [Example 2] (Ac-IVLSLDVPIGLLQILLEQEKQEKEKQQAK([AEEA-AEEA-γGlu-γGlu-C20 diacid])TNAQILAQV-NH2) | 32.3 | 429 | > 10 | – | – | – | – | – | – | – | – | Tmax ([1]; rat, in vivo, sc, 150 nmol/kg, male Sprague Dawley rats, single 150 nmol/kg s.c., Mean): 24 h; Tmax ([1]; rat, in vivo, sc, 150 nmol/kg, male Sprague Dawley rats, single 150 nmol/kg s.c., individual animal): 24 h
CC[C@H](C)[C@H](NC)C(=O)N[C@H](C(=O)N[C@@H](CC(C)C)C(=O)N[C@@H](CO)C(=O)N[C@@H](CC(C)C)C(=O)N[C@@H](CC(=O)O)C(=O)N[C@H](C(=O)N1CCC[C@H]1C(=O)N[C@H](C(=O)NCC(=O)N[C@@H](CC(C)C)C(=O)N[C@@H](CC(C)C)C(=O)N[C@@H](CCC(N)=O)C(=O)N[C@H](C(=O)N[C@@H](CC(C)C)C(=O)N[C@@H](CC(C)C)C(=O)N[C@@H](CCC(=O)O)C(=O)N[C@@H](CCC(N)=O)C(=O)N[C@@H](CCC(=O)O)C(=O)N[C@@H](CCCCN)C(=O)N[C@@H](CCC(N)=O)C(=O)N[C@@H](CCC(=O)O)C(=O)N[C@@H](CCCCN)C(=O)N[C@@H](CCC(=O)O)C(=O)N[C@@H](CCCCN)C(=O)N[C@@H](CCC(N)=O)C(=O)N[C@@H](CCC(N)=O)C(=O)N[C@@H](C)C(=O)N[C@@H](CCCCNC(=O)COCCOCCNC(=O)COCCOCCNC(=O)CC[C@H](NC(=O)CC[C@H](NC(=O)CCCCCCCCCCCCCCCCC(=O)O)C(=O)O)C(=O)O)C(=O)N[C@H](C(=O)N[C@@H](CC(N)=O)C(=O)N[C@@H](C)C(=O)N[C@@H](CCC(N)=O)C(=O)N[C@H](C(=O)N[C@@H](CC(C)C)C(=O)N[C@@H](C)C(=O)N[C@@H](CCC(N)=O)C(=O)N[C@H](C(N)=O)C(C)C)[C@@H](C)CC)[C@@H](C)O)[C@@H](C)CC)[C@@H](C)CC)C(C)C)C(C)C [Example 3] (H-[NMeI]VLSLDVPIGLLQILLEQEKQEKEKQQAK([AEEA-AEEA-γGlu-γGlu-C18 diacid])TNAQILAQV-NH2) | 24.4 | 499 | > 100 | 188 nM and 160 nM and 141 nM | 531 nM and 496 nM and 470 nM | 7.17 | 163 | 20 | 12 | 24 | 24 | CL/F [1, 3]: 0.125 mL/min/kg and 0.122 mL/min/kg; T1/2 [1, 3]: 14 h and 17 h; CL/F [1, 4]: 0.103 mL/min/kg and 0.107 mL/min/kg; CL/F ([1]; male, Sprague Dawley, rat, plasma, sc, 50 nmol/kg, CL/F, male Sprague Dawley rats, single 50 nmol/kg s.c., Mean): 0.117 mL/min/kg; CL/F ([1]; male, Sprague Dawley, rat, plasma, sc, 50 nmol/kg, CL/F, male Sprague Dawley rats, single 50 nmol/kg s.c., individual animal): 0.103 mL/min/kg; half-life ([1]; male, Sprague Dawley, rat, plasma, sc, 50 nmol/kg, single 50 nmol/kg s.c., Mean): 16 h; half-life ([1]; male, Sprague Dawley, rat, plasma, sc, 50 nmol/kg, single 50 nmol/kg s.c., individual animal): 16 h; CL/F ([1]; male, Sprague Dawley, rat, plasma, sc, 150 nmol/kg, CL/F, male Sprague Dawley rats, single 150 nmol/kg s.c., Mean): 0.1 mL/min/kg; CL/F ([1]; male, Sprague Dawley, rat, plasma, sc, 150 nmol/kg, CL/F, male Sprague Dawley rats, single 150 nmol/kg s.c., individual animal): 0.1 mL/min/kg; half-life ([1]; male, Sprague Dawley, rat, plasma, sc, 150 nmol/kg, single 150 nmol/kg s.c., Mean): 16 h; half-life ([1]; male, Sprague Dawley, rat, plasma, sc, 150 nmol/kg, single 150 nmol/kg s.c., individual animal): 16 h
CC[C@H](C)[C@H](NC)C(=O)N[C@H](C(=O)N[C@@H](CC(C)C)C(=O)N[C@@H](CO)C(=O)N[C@@H](CC(C)C)C(=O)N[C@@H](CC(=O)O)C(=O)N[C@H](C(=O)N1CCC[C@H]1C(=O)N[C@H](C(=O)NCC(=O)N[C@@H](CC(C)C)C(=O)N[C@@H](CC(C)C)C(=O)N[C@@H](CCC(N)=O)C(=O)N[C@H](C(=O)N[C@@H](CC(C)C)C(=O)N[C@@H](CC(C)C)C(=O)N[C@@H](CCC(=O)O)C(=O)N[C@@H](CCC(N)=O)C(=O)N[C@@H](CCC(=O)O)C(=O)N[C@@H](CCCCN)C(=O)N[C@@H](CCC(N)=O)C(=O)N[C@@H](CCC(=O)O)C(=O)N[C@@H](CCCCN)C(=O)N[C@@H](CCC(=O)O)C(=O)N[C@@H](CCCCN)C(=O)N[C@@H](CCC(N)=O)C(=O)N[C@@H](CCC(N)=O)C(=O)N[C@@H](C)C(=O)N[C@@H](CCCCNC(=O)COCCOCCNC(=O)COCCOCCNC(=O)CC[C@H](NC(=O)CC[C@H](NC(=O)CCCCCCCCCCCCCCCCCCC(=O)O)C(=O)O)C(=O)O)C(=O)N[C@H](C(=O)N[C@@H](CC(N)=O)C(=O)N[C@@H](C)C(=O)N[C@@H](CCC(N)=O)C(=O)N[C@H](C(=O)N[C@@H](CC(C)C)C(=O)N[C@@H](C)C(=O)N[C@@H](CCC(N)=O)C(=O)N[C@H](C(N)=O)C(C)C)[C@@H](C)CC)[C@@H](C)O)[C@@H](C)CC)[C@@H](C)CC)C(C)C)C(C)C [Example 4] (H-[NMeI]VLSLDVPIGLLQILLEQEKQEKEKQQAK([AEEA-AEEA-γGlu-γGlu-C20 diacid])TNAQILAQV-NH2) | 25.1 | 455 | > 100 | 126 nM and 150 nM and 127 nM | 356 nM and 527 nM and 482 nM | 7.51 | 134 | 24 | 24 | 24 | 24 | –
